The values below come from PMC5007466, “VCP recruitment to mitochondria causes mitophagy impairment and neurodegeneration in models of Huntington's disease” (Nature Communications, 2016).

Peptide text beside a SMILES is read from it. * marks the point of attachment. Cbz = O=C(OCc1ccccc1)*

Data set [1] concerns HdhQ111 mouse striatal cells. Put plainly: Mitochondria-associated LC3 II level. It counts as cell-based. Particulars: VCP siRNA, 48 h. An excerpt:
(§1) For silencing Htt and VCP in HD striatal cells, control siRNA, mouse Htt and mouse VCP siRNA were purchased from Thermo Fisher Scientific. HdhQ7 and HdhQ111 cells were transfected either with control siRNA, or Htt or VCP siRNA using TransIT-TKO Transfection Reagent (Mirus Bio, LLC), according to the manufacturer's instructions. The sequences for the siRNAs used in this study are as follows: mouse Htt, 5′-[…]-3′; Mouse VCP, 5′-GAGAGCAACCUUCGUAAG-3′; control non-targeting siRNA, 5′-TTCTCCGAACGTGTCACGT-3′.
Cells were washed with cold PBS and incubated on ice for 30 min in a lysis buffer (250 mM sucrose, 20 mM HEPES-NaOH, pH 7.5, 10 mM KCl, 1.5 mM MgCl2, 1 mM EDTA, protease inhibitor cocktail and phosphatase inhibitor cocktail). Mouse brains were minced and homogenized in the lysis buffer and then placed on ice for 30 min. Collected cells or tissue were disrupted 20 times by repeated aspiration through a 25-gauge needle, followed by a 30-gauge needle. The homogenates were spun at 800 g for 10 min at 4 °C, and the resulting supernatants were spun at 10,000 g for 20 min at 4 °C. The pellets were washed with lysis buffer and spun at 10,000 g again for 20 min at 4 °C. The final pellets were suspended in lysis buffer containing 1% Triton X-100 and were mitochondrial-rich lysate fractions. […]
(§2) Protein concentrations were determined by Bradford assay. […]

The subject of data set [2] is HdhQ111 / HdhQ7 mouse striatal cells. Put plainly: Mitochondrial membrane potential (TMRM), mouse striatal cells. It is filed as cell-based. Particulars: HdhQ111 cells, VCP siRNA, three days. Here is the method:
(§3) Immortalized striatal cell lines HdhQ111 mutant and HdhQ7 wt cells were obtained from the CHDI Foundation. Cells were cultured in DMEM supplemented with 10% FBS, 100 μg/ml penicillin, 100 μg ml^−1 streptomycin, and 400 μg ml^−1 G418. Cells were grown at 33 °C in a 5% CO2 incubator. Cells within 14 passages were used in all experiments.
as §1
To determine mitochondrial mass in cultures, cells were stained with antibodies against Tom20 or stained with Mitotracker green. The fluorescent density of Tom20 (1:500) or mitotracker green was quantitated using NIH Image J software. To measure the membrane potential of mitochondria in cultures, cells were incubated with 0.25 μM tetra-methyl rhodamine (Invitrogen Life Science) for 20 min at 37 °C. To determine lysosomal activity, cells were incubated with Lyso-ID Red dye (Enzo Life Science) for 30 min at 37 °C. The images were visualized by microscope and quantitation of the density of red fluorescence was carried out using NIH ImageJ software. For immunocytochemistry study, at least 100 cells per group were counted and quantitated by an observer blind to experimental conditions.

Data set [3] has as its system Htt or mtHtt protein in HdhQ7 and HdhQ111 cells. Put plainly: Htt/mtHtt protein level (western blot). It is filed as cell-based, mouse. Particulars: 16 h, n = 3. Here is the method:
Protein concentrations were determined by Bradford assay. Protein was resuspended in Laemmli buffer, loaded on SDS–PAGE, and transferred onto nitrocellulose membranes. Membranes were probed with the indicated antibodies, followed by visualization with ECL. Representative blots have been cropped for presentation. Images of full-size blots are presented in Supplementary Fig. 9.
Supplementary Figure 3: Htt and mtHtt are not substrates of VCP . Left: HdhQ7 and HdhQ111 cells were treated with MG132 (10 µM for 16 hours). Protein levels of Htt were determined in the total lysates of the cells. Actin was used as a loading control. The representative blots were from three independent experiments. Right: HdhQ7 and HdhQ111 were treated with Eer I (Eeyarestatin I, 5μ M for 16 hours). Protein levels of Htt were determined. Mcl-1, a mitochondrial Bcl-2 family protein, was used as a positive control. Mcl-1 has been reported to be a substrate of VCP on mitochondria and it is degraded via the ubiquitin-proteasome system. The representative blots were from three independent […]
(1 picture or pasted object on this page, not shown here)

The next data set concerns VCP. Particulars: cited from earlier work. An excerpt: We next ask what specific function VCP mediates on mitochondria from HD models. VCP knock-out is lethal in mice[34].
For data set [4], the system named is HdhQ111 / HdhQ7 mouse striatal cells. Put plainly: VCP mitochondrial level, mouse striatal cells (western blot). It counts as cell-based. Particulars: HdhQ111 cells, Htt siRNA, 3 days. How it is done: as §3, §1
Cells were washed with cold PBS and incubated on ice for 30 min in a lysis buffer (250 mM sucrose, 20 mM HEPES-NaOH, pH 7.5, 10 mM KCl, 1.5 mM MgCl2, 1 mM EDTA, protease inhibitor cocktail and phosphatase inhibitor cocktail). Mouse brains were minced and homogenized in the lysis buffer and then placed on ice for 30 min. Collected cells or tissue were disrupted 20 times by repeated aspiration through a 25-gauge needle, followed by a 30-gauge needle. The homogenates were spun at 800 g for 10 min at 4 °C, and the resulting supernatants were spun at 10,000 g for 20 min at 4 °C. The pellets were washed with lysis buffer and spun at 10,000 g again for 20 min at 4 °C. The final pellets were suspended in lysis buffer containing 1% Triton X-100 and were mitochondrial-rich lysate fractions. The supernatant was centrifuged at 100,000 g, 4 °C, for 1 h, the pellets were suspended in lysis buffer containing 1% Triton X-100 as ER fractions. The final supernatant was cytosolic fractions. The mitochondrial proteins VDAC, the ER protein WFS1 and the cytosolic protein Enolase were used as loading controls for mitochondrial, ER and cytosolic fractions, respectively.
as §2

In the case of “5′-GAGAGCAACCUUCGUAAG-3′ [VCP siRNA, reference compound]”, the “mitochondria-associated LC3 II” value in data set [1] was “reduced the levels of mitochondria-associated LC3 II”. For the same molecule, the mitochondrial membrane potential entry in data set [2] was “similarly promoted the MMP”. On to `CC(C)C[C@@H](C=O)NC(=O)[C@H](CC(C)C)NC(=O)[C@H](CC(C)C)NC(=O)OCc1ccccc1` [MG132] (Cbz-Leu-Leu-Leu-aldehyde), for which the “Htt or mtHtt protein levels” value in data set [3] (MG132 10 µM) is given as “did not affect Htt or mtHtt protein levels”. Regarding `c1ccc(CNc2nc(NCc3ccccc3)c3ccccc3n2)cc1` [N2,N4-dibenzylquinazoline-2,4-diamine], in the data set on VCP, the cell death entry was “rapidly lead to cell death” and the specificity entry is on record as “non-specific”. For the molecule “5′-GGUUUAUGAACUGACUUUGTT-3′ [Htt siRNA, reference compound]”, the “VCP translocation to mitochondria” value in data set [4] is “abolished VCP translocation to mitochondria”.

In the case of `CC1(C)C(N(O)C(=O)Nc2ccc(Cl)cc2)N(c2ccc(Cl)cc2)C(=O)N1CC(=O)N/N=C/C=C/c1ccc([N+](=O)[O-])o1` (stereo not drawn) [Eeyarestatin I], in the data set on VCP, the cell death result was “rapidly lead to cell death” and the specificity result was “non-specific”. Moreover, the “Htt or mtHtt protein levels” value in data set [3] (Eeyarestatin I 5 μM) was “did not affect Htt or mtHtt protein levels”.
